Paper PMC5750217 (Nature Communications, 2018)

Target: T1, GltPh-R397C (Pyrococcus horikoshii, UniProt O59010, R397C)
T1 construct: hexa-His (N, cleaved yes); made in house; host or cells: Escherichia coli Top10 (pBAD)
Assay: biochemical
Conditions: for Transport of radiolabelled substrate into proteoliposomes (in words): 100 nM L-[3H]aspartate, 1 µM L-[3H]glutamine, 10 µM 35S-cysteine ± 1 mM DTT, Na+ gradient
Description: Mutant and wild-type GltPh with an amino-terminal hexa-His tag were expressed in Escherichia coli Top10 cells (Invitrogen), which were grown in Luria broth medium at 37 °C. Ampicillin was added to a final concentration of 100 μg per ml. To induce expression of GltPh, 0.1% L-arabinose was added when cells reached an optical density of 0.6 at 660 nm, and cells were harvested 4 h post induction. Membranes were isolated, and then solubilised with n-dodecyl-β-D-maltopyranoside (C12M, Anatrace). Histidine containing proteins were purified using Ni^2+−nitrilotriacetic acid resin (Qiagen). The histidine tag was subsequently removed from GltPh by digestion with thrombin (10 U per mg protein) and the protein further purified on a Superdex 200 size exclusion column, where the detergent was exchanged to n-decyl-β-D-maltopyranoside (C10M, Anatrace).
Pure protein was reconstituted into liposomes composed of 75% E. coli Polar Lipid Extract and 25% 1-palmitoyl-2-oleoyl-sn-glycero-3 ^−phopshocholine (Avanti Polar Lipids). Lipids were mixed, dried under nitrogen and resuspended in internal buffer (100 mM KCl, 20 mM HEPES-Tris pH 7.5) using brief sonication (Laboratory Supplies Co.). The lipid suspension was frozen in liquid nitrogen and thawed at room temperature several times. Liposomes were formed by extrusion through 400 nm polycarbonate membranes (Avanti Polar Lipids) and were treated with Triton X-100 at a 0.5:1 (w/w) detergent to lipid ratio prior to the addition of protein at 0.25 μg protein per mg lipid. The protein/lipid mixture was left at room temperature for 30 min before detergent was removed using SM2 Biobeads (BioRad). The mixture was then incubated with gentle agitation, with four consecutive batches of Biobeads (80 mg per ml). Proteoliposomes were concentrated by centrifugation at 150,000 g for 30 min, resuspended at 100 mg lipid per ml and either used immediately or flash-frozen in liquid nitrogen and stored at −80 °C.
Mutant and wild-type GltPh-mediated transport of radiolabelled substrate was assayed by diluting proteoliposomes (100 mg lipid per ml) 133-fold into uptake buffer (100 mM NaCl, 20 mM HEPES-Tris pH 7.5, 1 μM valinomycin, 100 nM–1 µM L-[^3H]substrate) pre-warmed to 30 °C. At each time point, a 200 µl aliquot was removed and diluted 10-fold into ice-cold quench buffer (100 mM LiCl, 20 mM HEPES-Tris pH 7.5), followed by immediate filtration over nitrocellulose filters (0.22 μm pore size, Millipore). The filters were washed with ice-cold quench buffer and assayed for radioactivity using a Trilux beta counter (PerkinElmer). To establish substrate concentration–response curves, extraliposomal L-[^3H]substrate was varied between 500 nM and 100 µM, maintaining NaCl concentrations at 300 mM. For inhibitor concentration–response curves, for wild-type GltPh 100 nM L-[^3H]aspartate, and for mutant GltPh 1 µM L-[^3H]serine, was co-applied with varying inhibitor concentrations. Background levels of uptake were measured by diluting proteoliposomes into internal buffer (100 mM KCl, 20 mM HEPES-Tris pH 7.5) containing 1 µM of valinomycin and the indicated concentrations of L-[^3H]substrate.
Supplementary Figure 6. GltPh‐R397C, ASCT1 and ASCT2 are functional cysteine transporters. (a) Purified GltPh‐R397C was reconstituted into liposomes and 10µM 35S‐cysteine transport was measured over 10 minutes alone or in the presence of 1 mM dithiothreitol (DTT). Background levels of uptake were measured by diluting proteoliposomes into internal buffer (100 mM KCl, 20 mM HEPES‐Tris pH 7.5) containing 1 µM of valinomycin and the 10µM 35S‐cysteine. […]
(c) Neutral amino acid exchange in GltPh‐R397C. Counterflow experiments in which Na+ and amino acid loaded liposomes were used to detect the transport of a range of unlabelled neutral amino acids by exchanging with external 3H‐serine. Counterflow assays were performed using liposomes containing 200mM NaCl, 20 mM HEPES/Tris pH 7.5, and 1 mM of unlabelled amino acid as indicated. […]

T1 sequence (O59010 whole entry R397C): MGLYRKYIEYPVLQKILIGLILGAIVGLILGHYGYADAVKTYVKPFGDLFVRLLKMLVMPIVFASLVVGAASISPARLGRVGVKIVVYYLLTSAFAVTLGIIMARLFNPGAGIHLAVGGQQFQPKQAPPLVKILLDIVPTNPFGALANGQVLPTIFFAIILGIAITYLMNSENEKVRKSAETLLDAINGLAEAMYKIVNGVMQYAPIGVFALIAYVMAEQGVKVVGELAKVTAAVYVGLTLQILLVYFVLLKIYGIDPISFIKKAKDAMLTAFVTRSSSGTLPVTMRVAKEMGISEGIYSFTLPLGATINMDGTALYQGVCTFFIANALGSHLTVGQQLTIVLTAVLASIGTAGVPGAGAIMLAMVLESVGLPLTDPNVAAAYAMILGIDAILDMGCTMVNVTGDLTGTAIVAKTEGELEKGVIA

Compound: N[C@@H](CCC(=O)Nc1ccc([N+](=O)[O-])cc1)C(=O)O [GPNA, glutamyl-p-nitroanilide]
- IC50 for inhibition of L-[3H]serine transport (GltPh-R397C, 1 µM L-[3H]serine): poorly inhibited

Compound: NC(=O)CC[C@H](N)C(=O)O [L-glutamine]
- Transport of radiolabelled substrate into proteoliposomes (in words) (GltPh-R397C, listed as L-Glutamine): not a substrate
- Transport of radiolabelled substrate into proteoliposomes (in words) (GltPh-R397C, listed as L-[^3H]glutamine): not transported at levels above background
- Reduction of L-[3H]serine transport by unlabelled competitor (GltPh-R397C, 10 µM L-[3H]serine, 100-fold excess unlabelled amino acid): able to bind and inhibit

Compound: N[C@@H](CO)C(=O)O [L-serine]
- EC50: 4.5 ± 0.9 µM
- Fold lower affinity for GltPh-R397C compared with L-aspartate for wild-type GltPh (serine at GltPh-R397C vs L-aspartate at wild-type GltPh): 100 fold
